Patent US7235366B1 (priority 1993, dated 2007)
Like-named read-outs stand apart in the source and are kept apart here. Residues, ends and D or L forms follow the SMILES beside them.

What was measured:
MOP2 = target: T1, MOP2 (Mus musculus, UniProt P35377); type: cell-based
T1 construct: expressed in transfected cells; host or cells: COS-7 (transient)

cloned mouse δ receptor = target: T2, cloned mouse δ receptor (Mus musculus, UniProt P32300); assay: biochemical; type: binding
T2 construct: expressed in transfected cells
T2 sequence (P32300 whole entry): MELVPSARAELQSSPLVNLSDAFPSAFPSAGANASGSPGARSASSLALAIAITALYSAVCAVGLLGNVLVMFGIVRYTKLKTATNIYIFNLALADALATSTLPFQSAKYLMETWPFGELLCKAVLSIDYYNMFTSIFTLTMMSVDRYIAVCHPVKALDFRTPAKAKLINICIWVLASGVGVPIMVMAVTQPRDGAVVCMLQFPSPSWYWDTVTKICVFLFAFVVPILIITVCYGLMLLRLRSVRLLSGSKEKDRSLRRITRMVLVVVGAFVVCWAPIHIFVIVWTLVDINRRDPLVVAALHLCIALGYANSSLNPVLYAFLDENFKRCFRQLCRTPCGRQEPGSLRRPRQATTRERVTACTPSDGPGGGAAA

cloned rat μ receptor = target: T3, cloned rat μ receptor (Rattus norvegicus, UniProt P33535); assay: biochemical; type: binding
T3 construct: expressed in transfected cells; host or cells: COS-7 (transient)
T3 sequence (P33535 whole entry): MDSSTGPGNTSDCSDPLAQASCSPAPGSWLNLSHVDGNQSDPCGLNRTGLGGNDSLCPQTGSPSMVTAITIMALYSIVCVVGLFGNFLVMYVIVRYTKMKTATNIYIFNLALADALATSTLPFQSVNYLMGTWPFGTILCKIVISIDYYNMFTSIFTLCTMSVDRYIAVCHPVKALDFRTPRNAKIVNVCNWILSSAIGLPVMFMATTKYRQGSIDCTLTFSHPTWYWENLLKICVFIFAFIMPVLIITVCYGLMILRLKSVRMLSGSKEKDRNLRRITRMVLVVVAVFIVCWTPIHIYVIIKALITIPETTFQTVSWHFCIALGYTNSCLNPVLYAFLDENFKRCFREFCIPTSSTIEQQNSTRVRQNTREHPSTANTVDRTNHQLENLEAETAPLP

cloned mouse κ receptor = target: T4, cloned mouse κ receptor (Mus musculus, UniProt P33534); assay: biochemical; type: binding
T4 construct: expressed in transfected cells
T4 sequence (P33534 whole entry): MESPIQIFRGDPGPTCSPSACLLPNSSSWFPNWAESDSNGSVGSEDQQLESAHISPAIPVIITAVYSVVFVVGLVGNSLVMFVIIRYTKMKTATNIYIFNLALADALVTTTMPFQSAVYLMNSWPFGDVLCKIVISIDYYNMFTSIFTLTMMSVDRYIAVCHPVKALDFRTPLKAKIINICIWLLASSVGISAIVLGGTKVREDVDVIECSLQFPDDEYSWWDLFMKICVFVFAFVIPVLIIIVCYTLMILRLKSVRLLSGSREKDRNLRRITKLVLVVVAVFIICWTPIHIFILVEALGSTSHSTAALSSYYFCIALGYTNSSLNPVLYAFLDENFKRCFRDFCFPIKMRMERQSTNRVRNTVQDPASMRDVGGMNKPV

[1] = read-out: Binding potencies (Ki-nM) δ RECEPTOR [^3H] naltrindole
[2] = read-out: Binding potencies (Ki-nM) μ RECEPTOR [^3H] DAMGO
[3] = read-out: Binding potencies (Ki-nM) κ RECEPTOR [^3H] U-69, 593
[4] = Binding potencies (Ki-nM) μ RECEPTOR [^3H] DAMGO

T1 sequence (P35377 whole entry): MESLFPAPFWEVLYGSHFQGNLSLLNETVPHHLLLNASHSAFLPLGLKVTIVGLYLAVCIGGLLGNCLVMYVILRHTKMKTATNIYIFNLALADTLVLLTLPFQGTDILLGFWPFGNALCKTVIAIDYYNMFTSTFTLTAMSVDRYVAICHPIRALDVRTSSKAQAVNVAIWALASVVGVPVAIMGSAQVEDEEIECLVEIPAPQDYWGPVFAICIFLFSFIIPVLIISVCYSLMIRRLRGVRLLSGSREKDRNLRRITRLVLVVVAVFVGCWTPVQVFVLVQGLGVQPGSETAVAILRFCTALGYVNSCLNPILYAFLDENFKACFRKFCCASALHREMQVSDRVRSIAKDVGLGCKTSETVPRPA

CN1CC[C@]23c4c5ccc(O)c4O[C@H]2[C@@H](O)C=C[C@H]3[C@H]1C5 [morphine]
Effect on forskolin-stimulated cAMP formation, MOP2 (MOP2): no effect

CN(C(=O)Cc1ccc(Cl)c(Cl)c1)C(CN1CCCC1)c1cccc(OCC(=O)O)c1 (centres unmarked) [ICI 204, 448]
Ki (cloned mouse δ receptor; [1]): > 1000 nM | Ki (cloned rat μ receptor; [2]): > 1000 nM | Ki (cloned mouse κ receptor; [3]): 0.71 nM

COc1ccc2c3c1O[C@H]1[C@@H](O)C=C[C@H]4[C@@H](C2)N(C)CC[C@@]341 [codeine]
Ki (cloned mouse δ receptor): > 1000 nM | Effect on forskolin-stimulated cAMP formation, MOP2 (MOP2): no effect | Ki (cloned mouse κ receptor): > 1000 nM

CC[C@]12CCN(CC3CC3)[C@H](C(=O)c3ccc(O)cc31)[C@@H]2C [Ethylketocyclazocine]
Ki (cloned mouse δ receptor): 101 nM | Ki (cloned rat μ receptor): 3.1 nM | Effect on forskolin-stimulated cAMP formation, MOP2 (MOP2): no effect

CC(C)C[C@H](NC(=O)[C@H](Cc1ccccc1)NC(=O)CNC(=O)[C@@H](CO)NC(=O)[C@@H](N)Cc1ccc(O)cc1)C(=O)N[C@H](C(=O)O)[C@@H](C)O [DSLET, [D-Ser^2, Leu^5]enkephalin-Thr^6]
Ki (cloned rat μ receptor; [4]): 39 nM

C=CCN1CC[C@]23c4c5ccc(O)c4O[C@H]2[C@@H](O)C=C[C@H]3[C@H]1C5 [nalorphine]
Ki (cloned rat μ receptor): 0.97 nM | Ki (cloned mouse κ receptor): 1.1 nM

NC(=O)[C@@H]1CCCN1C(=O)[C@H](Cc1ccccc1)NC(=O)[C@@H]1CCCN1C(=O)[C@@H](N)Cc1ccc(O)cc1 [morphiceptin] (H-YPFP-NH2)
Ki (cloned mouse δ receptor): > 1000 nM | Ki (cloned rat μ receptor; Affinities for the cloned μ receptor): 10 to 100 nM | Ki (cloned rat μ receptor; [4]): 56 nM | Ki (cloned mouse κ receptor): > 1000 nM

CC[C@H](C)[C@H](NC(=O)[C@H](C)NC(=O)[C@H](CC(N)=O)NC(=O)[C@H](CCCCN)NC(=O)[C@H](Cc1ccccc1)NC(=O)[C@H](CC(C)C)NC(=O)[C@@H](NC(=O)[C@@H](NC(=O)[C@H](CC(C)C)NC(=O)[C@@H]1CCCN1C(=O)[C@@H](NC(=O)[C@H](CCC(N)=O)NC(=O)[C@H](CO)NC(=O)[C@H](CCCCN)NC(=O)[C@H](CCC(=O)O)NC(=O)[C@H](CO)NC(=O)[C@@H](NC(=O)[C@H](CCSC)NC(=O)[C@H](Cc1ccccc1)NC(=O)CNC(=O)CN)[C@@H](C)O)[C@@H](C)O)C(C)C)[C@@H](C)O)C(=O)N[C@H](C(=O)N[C@@H](CCCCN)C(=O)N[C@@H](CC(N)=O)C(=O)N[C@@H](C)C(=O)N[C@@H](Cc1ccc(O)cc1)C(=O)N[C@@H](CCCCN)C(=O)N[C@@H](CCCCN)C(=O)NCC(=O)N[C@@H](CCC(=O)O)C(=O)O)[C@@H](C)CC [des-Tyr^1-β-endorphin] (H-GGFMTSEKSQTPLVTLFKNAIIKNAYKKGE-OH; N-terminus and C-terminus assumed)
Ki (cloned mouse δ receptor; [1]): > 1000 nM | Ki (cloned rat μ receptor; [2]): > 1000 nM | Ki (cloned mouse κ receptor; [3]): > 1000 nM

CN1CC[C@@]23CCCC[C@@H]2[C@@H]1Cc1ccc(O)cc13 [Dextrorphan]
Ki (cloned mouse δ receptor): > 1000 nM | Ki (cloned mouse κ receptor): > 1000 nM

C[C@@H](O)[C@H](NC(=O)[C@H]1NC(=O)[C@H]([C@@H](C)O)NC(=O)[C@H](CCCN)NC(=O)[C@@H](Cc2c[nH]c3ccccc23)NC(=O)[C@H](Cc2ccc(O)cc2)NC(=O)[C@@H](NC(=O)[C@H](N)Cc2ccccc2)CSSC1(C)C)C(N)=O [CTOP, D-Phe-Cys-Tyr-D-Trp-Orn-Thr-Pen-Thr-NH2]
Ki (cloned mouse δ receptor): > 1000 nM | Ki (cloned mouse κ receptor): > 1000 nM

Oc1ccc2c3c1O[C@H]1c4[nH]c5c(c4C[C@@]4(O)[C@@H](C2)N(CC2CC2)CC[C@]314)C[C@@]1(O)[C@H]2Cc3ccc(O)c4c3[C@@]1(CCN2CC1CC1)[C@H]5O4 [nor-BNI, nor-binaltorphimine]
Ki (cloned mouse κ receptor): 0.027 nM

CCC(=O)C(CC(C)N(C)C)(c1ccccc1)c1ccccc1 (centres unmarked) [methadone]
Effect on forskolin-stimulated cAMP formation, MOP2 (MOP2): no effect

β-Endorphin (human)
Effect on forskolin-stimulated cAMP formation, MOP2 (MOP2): no effect

CC(C)=CCN1CCC2(C)c3cc(O)ccc3CC1C2C (centres unmarked) [pentazocine]
Ki (cloned mouse δ receptor): 31 nM | Ki (cloned rat μ receptor): 5.7 nM
